According to patent publication US20230293514A1, “INJECTABLE DEPOT FORMULATION COMPRISING CARIPRAZINE FREE BASE PARTICLES” (Anxo Pharmaceutical Co., Ltd., priority 2022, published 2023):
In brackets after ≈: the same amount, converted by molar mass. Counter-ions that a name gives are not always drawn.

How the values were obtained:
physchem = settings: water, thermodynamic from solid
[1] = plasma vs pH 7.6 buffer simulating muscular tissue; cited from earlier work

Row | solubility (physchem) | SMILES | solubilization enhancement in plasma compared to pH 7.6 buffer [1]
1 | > 5000 µg/mL | CN(C)C(=O)NC1CCC(CCN2CCN(c3cccc(Cl)c3Cl)CC2)CC1 (stereo in doubt) [cariprazine hydrochloride salt, trans-N-{4-[2-[4-(2,3-dichlorophenyl)piperazine-1-yl]ethyl]cyclohexyl}-N′, N′-dimethylurea hydrochloride] | –
2 | 6 µg/mL (≈ 14 µM) | CN(C)C(=O)N[C@H]1CC[C@H](CCN2CCN(c3cccc(Cl)c3Cl)CC2)CC1 [cariprazine free base, cariprazine] | –
3 | – | Cc1cc2c(s1)Nc1ccccc1N=C2N1CCN(C)CC1.O.O=C(O)c1cc2ccccc2c(Cc2c(O)c(C(=O)O)cc3ccccc23)c1O [olanzapine pamoate] | 18 fold
